Laboratory results: publication PMC5000626 (International Journal of Molecular Sciences, 2016)
Where two headings read alike, the source gives them in different places.

Columns and labels:
mMATE1 [1] = target: T1, mMATE1 (Mus musculus, UniProt Q8K0H1); experiment: cell-based
T1 sequence (Q8K0H1 1-567): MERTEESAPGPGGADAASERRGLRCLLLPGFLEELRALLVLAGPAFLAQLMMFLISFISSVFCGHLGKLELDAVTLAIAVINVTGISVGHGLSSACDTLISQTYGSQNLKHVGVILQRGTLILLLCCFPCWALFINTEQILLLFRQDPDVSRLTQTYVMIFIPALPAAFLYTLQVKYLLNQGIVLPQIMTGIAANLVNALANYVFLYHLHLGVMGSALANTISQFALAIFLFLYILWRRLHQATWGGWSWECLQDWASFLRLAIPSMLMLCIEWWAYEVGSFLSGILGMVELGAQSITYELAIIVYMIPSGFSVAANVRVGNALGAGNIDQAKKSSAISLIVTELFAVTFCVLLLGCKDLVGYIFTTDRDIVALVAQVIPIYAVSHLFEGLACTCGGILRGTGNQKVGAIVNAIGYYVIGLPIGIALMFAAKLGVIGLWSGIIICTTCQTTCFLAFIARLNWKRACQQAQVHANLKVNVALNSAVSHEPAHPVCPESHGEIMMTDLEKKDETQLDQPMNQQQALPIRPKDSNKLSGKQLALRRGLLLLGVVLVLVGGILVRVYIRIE

[2] = cited from earlier work
LLC-PK1 = LLC-PK1 cells; cited from earlier work
hMATE2-K [3] = target: T2, hMATE2-K (Homo sapiens, UniProt Q86VL8); experiment: cell-based
Method: (§1) For transient expression, HEK293 cells were seeded on 24-well (2 × 10^5 cells/well) poly-D-lysine-coated plates (BD Biocoat, Franklin Lakes, NJ, USA) and transfected with hMATE1, hMATE2-K and mMATE1 cDNA containing plasmid vectors and empty vectors (pcDNA3.1(+) for hMATE1 and hMATE2-K, pFLAG for mMATE1) by using the LipofectAMINE 2000 Reagent (Life Technologies Corporation), according to the manufacturer’s instructions. The cells were used for uptake experiments at 48 h after transfection, while the empty vector-expressing cells were used as control.
(§2) The cells were dissolved in 0.5 mL of 0.5 normality (N) sodium hydroxide (NaOH), and then, the radioactivity in 200 µL was determined using liquid scintillation counting following addition to 2 mL of Ultima Gold (PerkinElmer). The protein content of each NaOH solution was determined using a Bio-Rad Protein Assay Kit (Bio-Rad Laboratories, Hercules, CA, USA) by using bovine γ-globulin as a standard. The Km and Vmax values were calculated from the saturation curve using the Michaelis–Menten equation, V = Vmax[S]/(Km + [S]), with Kaleidagraph Version 4.00 (Synergy Software, Reading, PA, USA) after the nonspecific uptake values were subtracted.

hMATE2-K [4] = target: T2, hMATE2-K; conditions: [3H]dopamine uptake, HEK293 cells expressing hMATE2-K
Method: as §1, §2

mMATE1 [5] = target: T1, mMATE1; conditions: [3H]dopamine uptake, HEK293 cells expressing mMATE1
Method: as §1, §2

hMATE1 = target: T3, hMATE1 (Homo sapiens, UniProt Q96FL8); experiment: [3H]dopamine uptake kinetics in HEK293 cells transiently expressing hMATE1; format: cell-based
T3 sequence (Q96FL8 1-570): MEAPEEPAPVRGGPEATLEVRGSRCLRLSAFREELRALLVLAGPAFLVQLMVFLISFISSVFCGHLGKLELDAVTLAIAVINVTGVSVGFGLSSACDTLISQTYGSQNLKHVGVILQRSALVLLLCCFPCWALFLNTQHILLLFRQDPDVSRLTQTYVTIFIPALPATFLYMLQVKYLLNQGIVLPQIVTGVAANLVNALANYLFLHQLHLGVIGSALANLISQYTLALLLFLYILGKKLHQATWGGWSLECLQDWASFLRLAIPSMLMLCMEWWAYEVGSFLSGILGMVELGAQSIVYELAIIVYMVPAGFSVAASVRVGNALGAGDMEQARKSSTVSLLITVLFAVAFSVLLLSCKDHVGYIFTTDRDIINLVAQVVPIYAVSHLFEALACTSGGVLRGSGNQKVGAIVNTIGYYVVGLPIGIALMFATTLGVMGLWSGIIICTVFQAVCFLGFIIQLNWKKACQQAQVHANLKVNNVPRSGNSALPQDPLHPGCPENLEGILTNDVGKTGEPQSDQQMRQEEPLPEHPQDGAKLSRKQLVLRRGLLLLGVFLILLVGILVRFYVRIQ
Method: as §1, §2

[6] = patients with CML (imatinib also gastrointestinal stromal tumors), efficacy target for imatinib and nilotinib, safety limit for dasatinib

T2 sequence (Q86VL8 1-566 isoform Q86VL8-3): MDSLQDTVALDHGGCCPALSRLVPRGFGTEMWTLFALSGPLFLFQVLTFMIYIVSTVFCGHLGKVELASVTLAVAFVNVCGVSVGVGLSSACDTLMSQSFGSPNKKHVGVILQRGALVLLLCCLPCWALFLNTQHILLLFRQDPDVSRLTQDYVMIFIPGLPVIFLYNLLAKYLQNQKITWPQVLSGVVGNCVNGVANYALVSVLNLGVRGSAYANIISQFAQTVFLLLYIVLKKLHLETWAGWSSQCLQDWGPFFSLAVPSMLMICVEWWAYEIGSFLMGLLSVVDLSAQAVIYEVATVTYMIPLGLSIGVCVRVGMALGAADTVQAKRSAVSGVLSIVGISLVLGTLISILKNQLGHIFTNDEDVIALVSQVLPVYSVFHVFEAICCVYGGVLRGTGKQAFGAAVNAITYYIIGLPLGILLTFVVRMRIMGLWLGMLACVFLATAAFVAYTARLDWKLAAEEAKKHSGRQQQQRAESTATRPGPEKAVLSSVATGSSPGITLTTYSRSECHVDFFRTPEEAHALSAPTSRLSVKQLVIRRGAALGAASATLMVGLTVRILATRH

SMILES: Cc1nc(Nc2ncc(C(=O)Nc3c(C)cccc3Cl)s2)cc(N2CCN(CCO)CC2)n1 [Dasatinib, dasatinib]
- IC50 (mMATE1 [1]): 106 ± 7 µM
- plasma trough concentration (Ctrough), clinical target [2, 6]: ≤ 2.5 ng/mL
- plasma trough concentration (Ctrough), clinical target ([2]; same targets in molar units): ≤ 5 nM

SMILES: Fc1ccc(C(OCCN2CCN(CCCc3ccccc3)CC2)c2ccc(F)cc2)cc1 [GBR-12909]
- inhibition of outward transfer of synthesized dopamine (LLC-PK1): failed to inhibit

SMILES: Cc1cn(-c2cc(NC(=O)c3ccc(C)c(Nc4nccc(-c5cccnc5)n4)c3)cc(C(F)(F)F)c2)cn1 [Nilotinib, nilotinib]
- IC50 (hMATE2-K [3]): > 100 µM
- IC50 (mMATE1 [1]): > 100 µM
- plasma trough concentration (Ctrough), clinical target [2, 6]: > 761 ng/mL
- plasma trough concentration (Ctrough), clinical target ([2]; same targets in molar units): > 1400 nM

SMILES: COC(=O)[C@H]1[C@@H](OC(=O)c2ccccc2)C[C@@H]2CC[C@H]1N2C [cocaine]
- inhibition of outward transfer of synthesized dopamine (LLC-PK1): failed to inhibit

SMILES: NCCc1ccc(O)c(O)c1 [dopamine]
- Vmax (hMATE2-K [4]): 7.69 ± 1.12 nmol·mg·protein^−1·min^−1
- Vmax (mMATE1 [5]): 8.73 ± 0.08 nmol·mg·protein^−1·min^−1
- Km (hMATE1; [3H]dopamine uptake at 1 min, HEK293 cells expressing hMATE1, mean ± S.E., n=3): 560 ± 180 µM
- Vmax (hMATE1; [3H]dopamine uptake, HEK293 cells expressing hMATE1): 3.71 ± 0.15 nmol·mg·protein^−1·min^−1
